# Experimental data published in PMC11861159, “Design, synthesis, and in vitro, in vivo, and in silico evaluation of novel substituted 1,3,4-thiadiazole derivatives as anticonvulsant agents” (Frontiers in Chemistry, 2025).
# Experiments:
# PTZ-induced seizures = test: Subcutaneous pentylenetetrazole (sc-PTZ) test; type: in vivo, male Swiss albino mice; conditions: for Minimum active dose (mg/kg) Sc-PTZ 0.5 h / Minimum active dose (mg/kg) Sc-PTZ 4 h: oral, lowest dose active in half or more of the mice, n = 6;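 on % protection Sc-PTZ 0.5 h: percent reduction of the test group versus the control group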;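 on % protection Sc-PTZ 4 h: percent reduction of the test group versus the control group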
# mice = test: Rotarod neurotoxicity screening; type: in vivo, male Swiss albino mice; conditions: for Neurotoxicity dose (mg/kg) 0.5 h / Neurotoxicity dose (mg/kg) 4 h: rotarod, oral doses 30, 100, 300 mg/kg
# Protocol: The rotarod test, as described in the literature, was used to evaluate neurotoxicity (NT) in mice. In brief, six mice (one group) were trained to balance on a spinning rod (3 cm diameter and 6 rpm speed) to familiarize with the rotarod apparatus (Orchid Scientific, India). Each mouse underwent three trials to remain on the rotating rod for over 1 minute, with the experiment’s cutoff time (180 s) remaining constant. Different pre-oral (p.o.) doses of test and standard substances were administered to the trained animals.
# [1] = target: T1, human carbonic anhydrase II (Homo sapiens, UniProt P00918); test: Human carbonic anhydrase II colorimetric (p-nitrophenyl acetate) inhibition assay; type: biochemical; conditions: mean ± SEM, three independent experiments in triplicate; read-out: CA II (IC50)
# T1 construct: purchased Sino Biological Inc, Beijing, China
# Protocol: (§1) In brief, the reaction mixture contained 60 μL of 50 mM Tris-sulfate buffer (pH 7.6, containing 0.1 mM ZnCl2),10 μL (0.5 mM) of the test compound in 1% DMSO, and 10 μL of human carbonic anhydrase II and IX (Sino Biological Inc, Beijing, China). All the ingredients were mixed well and pre-incubated at 25°C for 10 min. Substrate p-nitrophenyl acetate was prepared as a 6 mM stock solution using 5% of acetonitrile in buffer and was used fresh. […] The total assay volume was adjusted to 100 μL and further incubated at 37°C for 30 min. Furthermore, all the ingredients were mixed properly, and absorbance was measured. […] The results reported are the mean of triplicate experiments (±SEM) and expressed IC50 values, which were calculated.
# [2] = target: T2, human carbonic anhydrase IX (Homo sapiens, UniProt Q16790); test: Human carbonic anhydrase IX colorimetric (p-nitrophenyl acetate) inhibition assay; type: biochemical; conditions: mean ± SEM, three independent experiments in triplicate; read-out: CA IX (IC50)
# T2 construct: purchased Sino Biological Inc, Beijing, China
# Protocol: as §1
# MES-induced seizures = test: Maximal electroshock-induced seizure (MES) test; type: in vivo, male Swiss albino mice; conditions: for Minimum active dose (mg/kg) MES 0.5 h / Minimum active dose (mg/kg) MES 4 h: oral, lowest dose active in half or more of the mice, n = 6;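 on % protection MES 0.5 h: percent reduction of the test group versus the control group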;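 on % protection MES 4 h: percent reduction of the test group versus the control group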
# induced seizures = test: Anticonvulsant screening (MES and sc-PTZ), outcome recovery/death
# Protocol: The test compounds and the standard drugs were dissolved in a 0.9% NaCl solution.
# After half an hour of p.o. administration of the standard and the tested compounds, an electro-convulsometer (Outus, Ambala Cantt, India) delivered an electrical stimulus of sufficient intensity (25 mA, 500 V, 50 Hz, 0.2 s) via auricular electrodes to induce maximal seizures (Figure 1). To avoid the animal’s death, a drop of 0.9% saline was injected into the eye before the insertion of the electrodes. The tonic hind limb extension (i.e., the hind limbs of the animals outstretched 180° to the plane of the body axis) served as the basic principle for the occurrence of seizure activity. Abolition of the hind limb tonic extensor (HLTE) component of the seizure is defined as protection.
# nitric oxide (NO) = test: Nitrite/NO level (Greiss reagent) in brain homogenate of PTZ-treated mice; type: in vivo; conditions: brain supernatant, compared to pentylenetetrazole-treated group, n = 6
# Protocol: (§2) Brain tissue homogenates were prepared by isolating the brain (tissue) from the mice. Animals were euthanized under anesthesia by ketamine (80 mg/kg) and xylazine (5 mg/kg) after 8 h of inducing test and standard compounds. Mice’s brains (tissue) were quickly removed and weighed, and the whole brain samples were washed twice with ice-cold saline solution before being deposited in glass vials, labeled, and stored in a deep freeze (−30°C) until further use. Brain tissue samples were homogenized with a glass handheld homogenizer (PTFE coated). Tissue homogenates (10% w/v) were prepared in cold 0.1 M phosphate buffer (pH adjusted to 7.4) using a homogenizer. To test biological parameters, the supernatant from homogenates was centrifuged at 12,000 rpm for 20 min at 4°C.
# Greiss reagent, a solution of 0.5% sulfonamide, 2.5% phosphoric acid, and 0.05% naphthyl ethylenediamine, was used to measure nitric oxide (NO) in TSH. Greiss reagent and TSH absorbance were measured at 540 nm, and the sodium nitrite standard curve was used to calculate the quantity of nitrite ([Wills, 1996]; [Green et al., 1982]).
# [3] = system: total antioxidant capacity (TAC); test: Total antioxidant capacity (FRAP) in brain tissue of PTZ-treated mice; type: in vivo; conditions: compared to pentylenetetrazole-treated group, n = 6
# Protocol: as §2
# Total antioxidant capacity (TAC) was measured by mixing 200 μL of tissue samples with 3 mL of ferric-reducing antioxidant power (FRAP) reagent in a vortex. After incubating samples and blank tubes in a water bath for 30 min at 37°C, the absorbance of the samples was measured at 593 nm. For the standard curve, a stock solution of FeSO4.7H2O in distilled water was produced. Stock solution concentrations were 200, 400, 800, 1200, and 1600 μM. The curve results were given as mM of ferrous sulfate equivalent Fe2+/L ([Sun et al., 1988]).
# glutathione (GSH) = test: Reduced glutathione level in brain of PTZ-treated mice; type: in vivo; conditions: compared to pentylenetetrazole-treated group, n = 6
# Protocol: as §2
# The quantity of glutathione (GSH) in the brain was determined using the Sedlak and Lindsay method ([Pant et al., 2023]). In brief, brain tissue was deproteinized with an equal amount of 10% TCA and left at 4°C for 2 h. The contents were centrifuged for 15 min at 1200 rpm. The supernatant was mixed with 2 mL of 0.4 M Tris buffer (pH 8.9) containing 0.02 M EDTA (pH 8.9), and then 0.01 M DTNB was added. Finally, the mixture was diluted with 0.5 mL of distilled water to make a total volume of 3 mL, and absorbance was measured using a spectrophotometer at 412 nm, with results expressed as mg GSH/gm tissue.
# GABA level = test: Estimation of brain GABA level; type: in vivo, mice; conditions: 30 mg/kg p.o., 2 h after administration, compared to pentylenetetrazole-treated group
# Protocol: as §2, with “Animals were euthanized under anesthesia by ketamine (80 mg/kg) and xylazine (5 mg/kg) after 8 h of inducing test and standard compounds.” left out
# The supernatant was put on silica gel 60 F254 aluminum sheets (10 cm × 10 cm) as the stationary phase, with the mobile phase consisting of water-saturated phenol. Prior to chromatography, TLC plates were prewashed with methanol and activated in an oven at 50°C for 5 min. The 0.1 mL supernatant solutions were applied in the form of bands on TLC plates. At room temperature, ascending development was carried out in a glass chamber saturated with the mobile phase for 30 min until a length of 80 mm was reached. The TLC plates that had been created were air-dried and treated with ninhydrin. […] The method’s specificity was determined by obtaining standard GABA samples and comparing their Rf values. […]
SMILES,% protection Sc-PTZ 0.5 h (PTZ-induced seizures; 30 mg/kg oral),% protection Sc-PTZ 0.5 h (PTZ-induced seizures; 100 mg/kg oral),% protection Sc-PTZ 4 h (PTZ-induced seizures; 100 mg/kg oral),% protection Sc-PTZ 0.5 h (PTZ-induced seizures; 300 mg/kg oral),% protection Sc-PTZ 4 h (PTZ-induced seizures; 300 mg/kg oral),Minimum active dose (mg/kg) Sc-PTZ 0.5 h (PTZ-induced seizures),Minimum active dose (mg/kg) Sc-PTZ 4 h (PTZ-induced seizures),Neurotoxicity dose (mg/kg) 0.5 h (mice),Neurotoxicity dose (mg/kg) 4 h (mice),IC50 [1],IC50 [2],% protection MES 0.5 h (MES-induced seizures; 30 mg/kg oral),% protection MES 0.5 h (MES-induced seizures; 100 mg/kg oral),% protection MES 4 h (MES-induced seizures; 100 mg/kg oral),% protection MES 0.5 h (MES-induced seizures; 300 mg/kg oral),% protection MES 4 h (MES-induced seizures; 300 mg/kg oral),Minimum active dose (mg/kg) MES 0.5 h (MES-induced seizures),Minimum active dose (mg/kg) MES 4 h (MES-induced seizures),Recovery/death (induced seizures; 30 mg/kg oral),Recovery/death (induced seizures; 100 mg/kg oral),further results
"COc1ccc(C(=O)Nc2nncs2)cc1OCCN(C)C [Compound 7e, 4-Methoxy-3-(2-(dimethylamino)ethoxy)-N-(1,3,4-thiadiazol-2-yl)benzamide]",34.26%,43.07%,61.04%,60%,67.81%,30 mg/kg,100 mg/kg,- (The indication - (dash) denotes a lack of action at the maximum dose supplied (300 mg/kg)),- (The indication - (dash) denotes a lack of action at the maximum dose supplied (300 mg/kg)),530 ± 30 nM,610 ± 20 nM,36.92%,43.07%,58.46%,60%,72.30%,30 mg/kg,100 mg/kg,Recovery,Recovery,Recovery/death (induced seizures; 300 mg/kg oral): Recovery
"CN(C)CCOc1cccc(C(=O)Nc2nncs2)c1 [Compound 6e, 3-(2-(dimethylamino)ethoxy)-N-(1,3,4-thiadiazol-2-yl)benzamide]",39.02%,32.39%,63.58%,46.55%,74.2%,30 mg/kg,100 mg/kg,- (The indication - (dash) denotes a lack of action at the maximum dose supplied (300 mg/kg)),- (The indication - (dash) denotes a lack of action at the maximum dose supplied (300 mg/kg)),230 ± 20 nM,210 ± 40 nM,38.46%,32.3%,55.38%,46.15%,73.83%,30 mg/kg,100 mg/kg,Recovery,Recovery,Recovery/death (induced seizures; 300 mg/kg oral): Recovery
"CCN(CC)CCOc1cc(C(=O)Nc2nncs2)ccc1OC [Compound 7d, 4-Methoxy-3-(2-(diethylamino)ethoxy)-N-(1,3,4-thiadiazol-2-yl)benzamide]",42.43%,53.27%,62.85%,61.46%,75.18%,30 mg/kg,100 mg/kg,- (The indication - (dash) denotes a lack of action at the maximum dose supplied (300 mg/kg)),- (The indication - (dash) denotes a lack of action at the maximum dose supplied (300 mg/kg)),480 ± 40 nM,280 ± 30 nM,30.76%,41.53%,63.07%,61.53%,76.92%,30 mg/kg,30 mg/kg,Recovery,Recovery,"NO (nitrite) level (nitric oxide (NO)): significantly reduced NO levels; Neurotoxicity (rotarod test), result in words (mice; at the highest dose (300 mg/kg)): without any sign of neurotoxicity; TAC level (FRAP) [3]: significant increase in TAC levels; GSH level (glutathione (GSH)): significant increase in GSH levels; GABA level in the brain (GABA level): significant increase in GABA levels; % protection MES 4 h (MES-induced seizures; 30 mg/kg oral): 40%; Recovery/death (induced seizures; 300 mg/kg oral): Recovery"
